# Measured values as given in paper PMC8608967, “KDS2010, a Newly Developed Reversible MAO-B Inhibitor, as an Effective Therapeutic Candidate for Parkinson’s Disease” (Neurotherapeutics, 2021).
# Where two headings read alike, the source gives them in different places.
# Legend:
# [1] = molecular target: T1, human recombinant MAO-B (hMAO-B) (Homo sapiens, UniProt P27338); test: In vitro MAO-B enzyme assay (H2O2 release, absorbance 570 nm); assay type: biochemical; settings: for IC50: hMAO-B, substrate benzylamine, read-out: Inhibition (IC50) MAO-B; for SI (selectivity index), IC50(MAO-A)/IC50(MAO-B): selectivity for MAO-B isoform
# T1 construct: purchased Sigma Aldrich
# T1 sequence (P27338 1-520): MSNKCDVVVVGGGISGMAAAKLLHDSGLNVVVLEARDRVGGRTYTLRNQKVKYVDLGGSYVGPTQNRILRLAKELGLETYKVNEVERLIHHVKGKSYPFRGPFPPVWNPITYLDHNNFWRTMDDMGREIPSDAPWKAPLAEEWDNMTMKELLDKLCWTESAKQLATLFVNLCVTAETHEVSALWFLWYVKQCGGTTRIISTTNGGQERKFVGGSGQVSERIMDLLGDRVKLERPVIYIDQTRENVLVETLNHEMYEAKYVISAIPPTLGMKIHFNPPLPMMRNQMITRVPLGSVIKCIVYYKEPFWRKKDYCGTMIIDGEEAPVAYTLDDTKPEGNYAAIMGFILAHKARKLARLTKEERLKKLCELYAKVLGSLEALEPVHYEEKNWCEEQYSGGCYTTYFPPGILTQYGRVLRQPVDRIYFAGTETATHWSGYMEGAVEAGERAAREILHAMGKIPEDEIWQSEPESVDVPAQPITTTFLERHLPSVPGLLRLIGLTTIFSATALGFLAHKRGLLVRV
# Experimental: (§1) In brief, human recombinant MAO-A (hMAO-A) and MAO-B (hMAO-B) (Sigma Aldrich) were diluted in 50 mM phosphate buffer (~ 0.3 μg MAO-A protein/well or ~ 2.5 μg MAO-B protein/well), and the test compound was added in DMSO to a final concentration from 0.1 nM to 10 μM. The amount of hydrogen peroxide (H2O2) released after addition of enzyme substrate (p-tyramine for MAO-A or benzylamine for MAO-B) was quantified by measuring the absorbance increase at 570 nm on a microplate reader.
# [2] = molecular target: T2, human recombinant MAO-A (hMAO-A) (Homo sapiens, UniProt P21397); test: In vitro MAO-A enzyme assay (H2O2 release, absorbance 570 nm); assay type: biochemical; settings: substrate p-tyramine, read-out: Inhibition (IC50) MAO-A
# T2 construct: purchased Sigma Aldrich
# T2 sequence (P21397 1-527): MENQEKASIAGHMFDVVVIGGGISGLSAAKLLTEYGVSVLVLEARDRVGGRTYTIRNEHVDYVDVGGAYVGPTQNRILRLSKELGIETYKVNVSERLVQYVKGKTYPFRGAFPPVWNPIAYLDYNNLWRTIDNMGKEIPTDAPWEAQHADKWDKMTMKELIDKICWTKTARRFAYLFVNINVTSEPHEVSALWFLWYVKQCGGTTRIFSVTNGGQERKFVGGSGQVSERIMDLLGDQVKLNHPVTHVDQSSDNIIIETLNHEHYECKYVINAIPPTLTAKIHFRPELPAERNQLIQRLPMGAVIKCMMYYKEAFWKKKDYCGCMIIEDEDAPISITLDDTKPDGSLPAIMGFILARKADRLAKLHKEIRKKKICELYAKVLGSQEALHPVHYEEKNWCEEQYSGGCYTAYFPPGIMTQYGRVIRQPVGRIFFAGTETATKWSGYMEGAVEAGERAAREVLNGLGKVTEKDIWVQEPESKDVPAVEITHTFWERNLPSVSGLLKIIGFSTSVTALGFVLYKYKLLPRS
# Experimental: as §1
# [3] = molecular target: T1, human recombinant MAO-B (hMAO-B); settings: cited from earlier work; for IC50: read-out: Inhibition (IC50) MAO-B; for SI (selectivity index), IC50(MAO-A)/IC50(MAO-B): selectivity for MAO-B isoform
# [4] = molecular target: T2, human recombinant MAO-A (hMAO-A); settings: ref Park, JH. et al. Science Advances. 5(3), eaav0136 (2019), read-out: Inhibition (IC50) MAO-A; cited from earlier work
# [5] = system: MPTP-induced PD mouse model; test: MPTP mouse model: vertical grid test and coat hanger test; assay type: in vivo; settings: MPTP mice; long-term (30-day) treatment, 10 mg/kg/day oral
# Experimental: Group allocation and outcome assessment, but not the conduct of experiments and data analysis, were performed in a blinded manner. Throughout the study, confounders were not controlled. An acclimation period of 7 days was allowed for animals to stabilize in a new environment before model induction. […] Treatment drugs were dissolved in 100 μL of water and total dose (in mg) was calculated according to individual body weight (in kg).
# The MPTP model was established using the acute regimen of four intraperitoneal (i.p.) injections of MPTP-HCl (M0896, Sigma Aldrich, 2 mg/mL in saline, 20 mg/kg for one injection) at 2-h intervals.
# Motor deficits of the MPTP-induced PD mouse model were assessed using the vertical grid test as described in the previous study [23]. Briefly, after 2 days of habituation to the testing apparatus, individual mice were gently placed 3 cm from the top, facing upward, and allowed to turn around and climb down. We also performed a coat hanger test as described [24–26]. Briefly, a mouse was gently hung on the middle of a coat hanger and allowed to ascend to the top. Performance was graded as follows: 0, falling off the hanger within 20 s; 1, moving to the side-bar of the hanger; 2, reaching the side-bar of the hanger; 3, climbing the side-bar of the hanger; 4, moving to the top of the hanger; 5, climbing and reaching the safe zone. The test was performed twice and each trial lasted a maximum of 3 min.
# [6] = hMAO-B, ref Park, JH. et al. Science Advances. 5(3), eaav0136 (2019)
# [7] = ref Park, JH. et al. Science Advances. 5(3), eaav0136 (2019)
SMILES,IC50 [1] [µM],IC50 [2] [µM],melting point [°C],"SI (selectivity index), IC50(MAO-A)/IC50(MAO-B) [1]",IC50 [4] [µM],also measured
CS(=O)(=O)O.NC(=O)CNCc1ccc(-c2ccccc2)cc1 [Compound 17a],> 10,> 100,233 to 236,–,–,–
NC(=O)CNCc1ccc(-c2ccc(F)cc2)cc1 [Compound 17d],> 10,> 100,238 to 242,–,–,–
NC(=O)CNCc1ccc(-c2cccc(Cl)c2)cc1 [Compound 17f],1.56 ± 0.071,> 100,165 to 168,> 64,–,–
NC(=O)CNCc1ccc(-c2ccc(Cl)cc2)cc1 [Compound 17g],1.43 ± 0.1,> 100,262 to 266,> 70,–,–
NC(=O)CNCc1ccc(-c2cccc(C(F)(F)F)c2)cc1 [Compound 17i],0.999 ± 0.059,> 100,168 to 169,> 100,–,–
NC(=O)CNCc1ccc(-c2ccc(C(F)(F)F)cc2)cc1 [Compound 17j],0.121 ± 0.08,> 100,255 to 256,> 826,–,fold increase in the IC50 for MAO-B inhibition versus 18j (KDS2010) ([1]; substitution of CH3 with H at X): 15 fold
NC(=O)CNCc1ccc(-c2cccc(OC(F)(F)F)c2)cc1 [Compound 17k],0.323 ± 0.088,> 100,152 to 156,> 310,–,–
NC(=O)CNCc1ccc(-c2ccc(OC(F)(F)F)cc2)cc1 [Compound 17l],0.137 ± 0.07,> 100,217 to 220,> 730,–,–
COc1ccc(-c2ccc(CNCC(N)=O)cc2)cc1 [Compound 17n],> 10,> 100,243 to 245,–,–,–
C[C@H](NCc1ccc(-c2ccccc2)cc1)C(N)=O [Compound 18a],–,–,252 to 256,–,> 100,"IC50 [3, 6]: > 10 µM"
C[C@H](NCc1ccc(-c2ccccc2F)cc1)C(N)=O [Compound 18b],–,–,131 to 135,–,> 100,"SI (selectivity index), IC50(MAO-A)/IC50(MAO-B) [3, 7]: > 12"
C[C@H](NCc1ccc(-c2cccc(F)c2)cc1)C(N)=O [Compound 18c],–,–,235 to 238,–,> 100,"SI (selectivity index), IC50(MAO-A)/IC50(MAO-B) [3, 7]: > 27"
C[C@H](NCc1ccc(-c2ccc(F)cc2)cc1)C(N)=O [Compound 18d],–,–,162 to 164,–,> 100,"SI (selectivity index), IC50(MAO-A)/IC50(MAO-B) [3, 7]: > 23"
C[C@H](NCc1ccc(-c2ccccc2Cl)cc1)C(N)=O [Compound 18e],–,–,216 to 220,–,> 100,"IC50 [3, 6]: > 10 µM"
C[C@H](NCc1ccc(-c2cccc(Cl)c2)cc1)C(N)=O [Compound 18f],–,–,220 to 223,–,> 100,"IC50 [3, 6]: 0.242 ± 0.008 µM; SI (selectivity index), IC50(MAO-A)/IC50(MAO-B) [3, 7]: > 413"
C[C@H](NCc1ccc(-c2ccc(Cl)cc2)cc1)C(N)=O [Compound 18g],–,–,220 to 223,–,> 100,"IC50 [3, 6]: 0.182 ± 0.007 µM; SI (selectivity index), IC50(MAO-A)/IC50(MAO-B) [3, 7]: > 549"
C[C@H](NCc1ccc(-c2ccccc2C(F)(F)F)cc1)C(N)=O [Compound 18h],–,–,224 to 227,–,> 100,"IC50 [3, 6]: > 10 µM"
C[C@H](NCc1ccc(-c2cccc(C(F)(F)F)c2)cc1)C(N)=O [Compound 18i],–,–,215 to 217,–,> 100,"IC50 [3, 6]: 0.316 ± 0.006 µM; SI (selectivity index), IC50(MAO-A)/IC50(MAO-B) [3, 7]: > 316"
C[C@H](NCc1ccc(-c2cccc(OC(F)(F)F)c2)cc1)C(N)=O [Compound 18k],–,–,209 to 212,–,> 100,"SI (selectivity index), IC50(MAO-A)/IC50(MAO-B) [3, 7]: > 463"

SMILES,IC50 [1] [µM],IC50 [2] [µM],melting point [°C],"SI (selectivity index), IC50(MAO-A)/IC50(MAO-B) [1]",IC50 [4] [µM],also measured
C[C@H](NCc1ccc(-c2ccc(OC(F)(F)F)cc2)cc1)C(N)=O [Compound 18l],–,–,256 to 259,–,> 100,"SI (selectivity index), IC50(MAO-A)/IC50(MAO-B) [3, 7]: > 1,020"
COc1ccc(-c2ccc(CN[C@@H](C)C(N)=O)cc2)cc1 [Compound 18n],3.33 ± 0.054,> 100,231 to 233,> 30,–,–
CC(C)Cc1ccc(-c2ccc(CN[C@@H](C)C(N)=O)cc2)cc1 [Compound 18o],0.325 ± 0.09,> 100,253 to 256,> 307,–,–
CC(NCc1ccc(-c2ccc(C(F)(F)F)cc2)cc1)C(N)=O (stereo not shown) [Compound 19j],–,–,–,–,> 100,–
CC[C@H](NCc1ccc(-c2ccc(C(F)(F)F)cc2)cc1)C(N)=O [Compound 20j],0.242 ± 0.008,> 100,253 to 256,> 413,–,–
CC[C@H](NCc1ccc(-c2ccc(OC(F)(F)F)cc2)cc1)C(N)=O [Compound 20l],0.099 ± 0.005,> 100,–,"> 1,010",–,–
CC(C)[C@H](NCc1ccc(-c2cccc(C(F)(F)F)c2)cc1)C(N)=O [Compound 21i],> 10,> 100,274 to 278,–,–,–
CC(C)[C@H](NCc1ccc(-c2ccc(C(F)(F)F)cc2)cc1)C(N)=O [Compound 21j],4.07 ± 0.15,> 100,266 to 267,> 25,–,–
CC(C)C[C@H](NCc1ccc(-c2cccc(F)c2)cc1)C(N)=O [Compound 22c],> 10,> 100,264 to 265,–,–,–
CC(C)C[C@H](NCc1ccc(-c2cccc(C(F)(F)F)c2)cc1)C(N)=O [Compound 22i],> 10,> 100,239 to 243,–,–,–
CC(C)C[C@H](NCc1ccc(-c2ccc(C(F)(F)F)cc2)cc1)C(N)=O [Compound 22j],5.3 ± 0.09,> 100,267 to 270,> 19,–,–
CC(C)C[C@H](NCc1ccc(-c2cccc(OC(F)(F)F)c2)cc1)C(N)=O [Compound 22k],> 10,> 100,232 to 233,–,–,–
COc1cccc(-c2ccc(CN[C@@H](CC(C)C)C(N)=O)cc2)c1 [Compound 22m],> 10,> 100,240 to 242,–,–,–
CCC(C)[C@H](NCc1ccc(-c2cccc(F)c2)cc1)C(N)=O (stereo partly shown) [Compound 23c],> 10,> 100,252 to 255,–,–,–
CCC(C)[C@H](NCc1ccc(-c2cccc(Cl)c2)cc1)C(N)=O (stereo partly shown) [Compound 23f],5 to 10,> 100,248 to 250,–,–,–
CCC(C)[C@H](NCc1ccc(-c2ccc(Cl)cc2)cc1)C(N)=O (stereo partly shown) [Compound 23g],> 10,> 100,260 to 262,–,–,–
CCC(C)[C@H](NCc1ccc(-c2cccc(C(F)(F)F)c2)cc1)C(N)=O (stereo partly shown) [Compound 23i],5 to 10,> 100,263 to 265,–,–,–
"C[C@H](NCc1ccc(OCc2cccc(F)c2)cc1)C(N)=O [Safinamide, reference compound]",–,–,–,–,–,vertical grid test: time to turn [5]: reduced; vertical grid test: total time [5]: reduced
"CC(=O)N[C@H]1CC(=O)N(c2ccc(OCc3cccc(F)c3)cc2)C1 [Sembragiline, reference compound]",0.015 ± 0.005,3.85,–,653,–,"IC50 ([3]; positive control, literature value, ref Borroni, E. et al. J. Pharmacol. Exp. Ther. 362, 413–423 (2017)): 0.006 ± 0.001 µM"
